Measurements reported in US20050209278A1, “Piperidinyl- and piperazinyl-sulfonylmethyl hydroxamic acids and their use as protease inhibitors” (priority 2002, published 2005).

Key:
MMP-1 = biological target: T1, MMP-1 (Homo sapiens, UniProt P03956); test: In vitro MMP inhibition, Ki determination (fluorogenic substrate II); assay type: biochemical; conditions: value outside parentheses; read-out: MMP-1 Ki
T1 construct: made in house; host or cells: MMP-1-transfected HT-1080 cells (spent media)
T1 sequence (P03956 100-469): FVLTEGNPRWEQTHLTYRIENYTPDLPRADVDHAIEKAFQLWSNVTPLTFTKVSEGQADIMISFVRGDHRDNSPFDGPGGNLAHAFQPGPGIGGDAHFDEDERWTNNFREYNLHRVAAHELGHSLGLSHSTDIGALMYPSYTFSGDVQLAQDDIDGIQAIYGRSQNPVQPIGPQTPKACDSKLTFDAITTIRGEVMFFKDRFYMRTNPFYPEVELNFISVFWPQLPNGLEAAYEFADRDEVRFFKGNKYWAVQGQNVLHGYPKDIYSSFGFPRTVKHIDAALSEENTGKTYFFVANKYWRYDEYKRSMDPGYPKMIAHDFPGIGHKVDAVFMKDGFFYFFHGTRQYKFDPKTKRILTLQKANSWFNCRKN

MMP-9 = biological target: T2, MMP-9 (Homo sapiens, UniProt P14780); test: as above; assay type: biochemical; conditions: value outside parentheses
T2 construct: made in house; host or cells: MMP-9-transfected HT1080 cells (spent media)
Procedure, shortened: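 HT1080-derived MMP-9, activated with APMA, trypsin or MMP-3, incubated 1 hr at room temperature with inhibitor and 4 μM fluorogenic substrate II (at or below Km) in pH 7.5 Tris/NaCl/CaCl2 buffer; ex 330/em 420 nm. Ki from Morrison-equation regression, without substrate correction.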

T2 sequence (P14780 107-707 limits assumed): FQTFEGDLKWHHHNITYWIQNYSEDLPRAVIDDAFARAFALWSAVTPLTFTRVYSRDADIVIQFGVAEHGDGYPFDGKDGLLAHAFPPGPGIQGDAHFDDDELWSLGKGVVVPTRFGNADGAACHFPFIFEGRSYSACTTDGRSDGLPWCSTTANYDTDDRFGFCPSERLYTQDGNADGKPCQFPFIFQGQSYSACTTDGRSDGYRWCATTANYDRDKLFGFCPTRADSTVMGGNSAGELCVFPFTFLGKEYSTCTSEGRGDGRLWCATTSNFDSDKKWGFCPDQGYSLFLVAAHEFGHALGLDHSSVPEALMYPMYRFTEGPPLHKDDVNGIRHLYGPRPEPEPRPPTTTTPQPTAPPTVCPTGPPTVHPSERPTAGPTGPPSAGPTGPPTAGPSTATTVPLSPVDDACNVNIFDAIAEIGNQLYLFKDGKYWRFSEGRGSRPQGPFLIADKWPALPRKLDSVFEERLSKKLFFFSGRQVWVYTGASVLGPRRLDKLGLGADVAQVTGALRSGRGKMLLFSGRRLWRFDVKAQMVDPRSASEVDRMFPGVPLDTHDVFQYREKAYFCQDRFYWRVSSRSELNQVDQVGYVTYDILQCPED

Question: How did the Ki (MMP-1) turn out when `CCC=C1CCN(S(=O)(=O)C2(C(=O)NO)CCOCC2)CC1` [Example 374] was run?
Answer: 0.303 µM

Question: What about the Ki (MMP-9) of the same molecule?
Answer: 0.219 µM

Question: `O=C(NO)C1(S(=O)(=O)N2CCC(COCC(F)(F)C(F)F)CC2)CCOCC1` [Example 375] was tested. Which Ki (MMP-1) did it give?
Answer: > 10 µM

Question: What about the Ki (MMP-9) of the same molecule?
Answer: 0.105 µM

Question: Which Ki (MMP-1) does the source give for `O=C(NO)C1(S(=O)(=O)N2CCC(COCC(F)(F)C(F)(F)F)CC2)CCOCC1` [Example 376] here?
Answer: > 10 µM

Question: And the Ki (MMP-9)?
Answer: 0.114 µM

Question: With `O=C(NO)C1(S(=O)(=O)N2CCC(COCC(F)(F)C(F)(F)C(F)(F)F)CC2)CCOCC1` [Example 377] as the molecule, how does the Ki (MMP-1) read?
Answer: > 10 µM

Question: And the Ki (MMP-9)?
Answer: 0.174 µM

Question: `O=C(NO)C1(S(=O)(=O)N2CCC(COCC(F)(F)C(F)(F)C(F)(F)C(F)F)CC2)CCOCC1` [Example 378] was tested. Which Ki (MMP-1) did it give?
Answer: > 10 µM

Question: What about the Ki (MMP-9) of the same molecule?
Answer: 0.219 µM

Question: What does the source list for `CCCCc1ccc(-c2cnc(N3CCN(S(=O)(=O)C4(C(=O)NO)CCOCC4)CC3)s2)cc1` [Example 379]?
Answer: Ki (MMP-1): > 10 µM; Ki (MMP-9): 0.00397 µM

Question: Which Ki (MMP-1) does the source give for `CCCCCc1ccc(-c2cnc(N3CCN(S(=O)(=O)C4(C(=O)NO)CCOCC4)CC3)s2)cc1` [Example 380] here?
Answer: > 10 µM

Question: And the Ki (MMP-9)?
Answer: 0.0162 µM

Question: For `CCc1ccc(-c2cnc(N3CCN(S(=O)(=O)C4(C(=O)NO)CCOCC4)CC3)s2)cc1` [Example 381], which Ki (MMP-1) is on record?
Answer: 3.25 µM

Question: What about the Ki (MMP-9) of the same molecule?
Answer: 0.00103 µM

Question: How did the Ki (MMP-1) turn out when `O=C(NO)C1(S(=O)(=O)N2CCN(c3ncc(-c4cccnc4)s3)CC2)CCOCC1` [Example 382] was run?
Answer: 2.69 µM

Question: And the Ki (MMP-9)?
Answer: 0.00426 µM

Question: With `NC(=O)c1ccccc1-c1cnc(N2CCN(S(=O)(=O)C3(C(=O)NO)CCOCC3)CC2)s1` [Example 383] as the molecule, how does the Ki (MMP-1) read?
Answer: > 10 µM

Question: And the Ki (MMP-9)?
Answer: 9.52 µM

Question: Which results are given for `N#Cc1cccc(-c2cnc(N3CCN(S(=O)(=O)C4(C(=O)NO)CCOCC4)CC3)s2)c1` [Example 384]?
Answer: Ki (MMP-1): 0.266 µM; Ki (MMP-9): 0.0064 µM

Question: Which Ki (MMP-1) does the source give for `O=C(NO)C1(S(=O)(=O)N2CCC(c3ccc(OCC(F)(F)C(F)F)cc3)CC2)CCN(CCN2CCOCC2)CC1` [Example 385] here?
Answer: > 10 µM

Question: And the Ki (MMP-9)?
Answer: 0.000829 µM

Question: With `O=C(NO)C1(S(=O)(=O)N2CCN(c3ccc(CCCC(F)(F)F)cc3F)CC2)CCOCC1` [Example 386] as the molecule, how does the Ki (MMP-1) read?
Answer: > 10 µM

Question: And the Ki (MMP-9)?
Answer: 0.0049 µM

Question: Which Ki (MMP-1) does the source give for `O=C(NO)C1(S(=O)(=O)N2CCN(c3ncc(-c4ccccn4)s3)CC2)CCOCC1` [Example 387] here?
Answer: > 10 µM

Question: And the Ki (MMP-9)?
Answer: 0.0346 µM

Question: Which results are given for `CCCCc1ccc(C2CCN(S(=O)(=O)C3(C(=O)NO)CCNCC3)CC2)nc1` [Example 388]?
Answer: Ki (MMP-1): > 10 µM; Ki (MMP-9): 0.0023 µM

Question: What does the source list for `O=C(NO)C1(S(=O)(=O)N2CCN(c3ccc(CCCC(F)(F)F)c(F)c3)CC2)CCOCC1` [Example 389]?
Answer: Ki (MMP-1): > 10 µM; Ki (MMP-9): 0.00134 µM

Question: `O=C(NO)C1(S(=O)(=O)N2CCC(c3ccc(-c4cccnc4)cn3)CC2)CCOCC1` [Example 390] was tested. Which Ki (MMP-1) did it give?
Answer: 7.88 µM

Question: What about the Ki (MMP-9) of the same molecule?
Answer: 0.0532 µM

Question: For `O=C(NO)C1(S(=O)(=O)N2CCC(c3ccc(-c4ccccc4)cn3)CC2)CCOCC1` [Example 392], which Ki (MMP-1) is on record?
Answer: 3.43 µM

Question: What about the Ki (MMP-9) of the same molecule?
Answer: 0.00233 µM

Question: With `O=C(NO)C1(S(=O)(=O)N2CCC(c3ccc(-c4cccs4)cn3)CC2)CCOCC1` [Example 394] as the molecule, how does the Ki (MMP-1) read?
Answer: 2.75 µM

Question: What about the Ki (MMP-9) of the same molecule?
Answer: 0.00152 µM

Question: `O=C(NO)C1(S(=O)(=O)N2CCC(c3ccc(-c4ccc(C(F)(F)F)cc4)cn3)CC2)CCOCC1` [Example 395] was tested. Which Ki (MMP-1) did it give?
Answer: > 10 µM

Question: What about the Ki (MMP-9) of the same molecule?
Answer: 0.0294 µM

Question: For `CCCCc1ccc(C2CCN(S(=O)(=O)C3(C(=O)NO)CCN(CC)CC3)CC2)nc1` [Example 396], which Ki (MMP-1) is on record?
Answer: > 10 µM

Question: And the Ki (MMP-9)?
Answer: 0.00039 µM
